Source: PubChem BioAssay (NCI)
Values joined by “and” are separate entries in the source; they are usually repeats but may differ in a detail not shown here. Equal entries are not always repeated.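 Five compound concentrations were applied to cells in 96-well plates for 48 hours; endpoints were derived by simple linear interpolation of the resulting dose-response curve. GI50 marks 50% less growth. TGI denotes the concentration required for complete inhibition of growth.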

Columns and labels:
Assay in all cases: inhibition of tumour cell growth, NCI panel, 48 h
ACHN renal = tested on: ACHN renal
HL-60(TB) leukemia = tested on: HL-60(TB) leukemia
HOP-62 NSCLC = tested on: HOP-62 NSCLC
MCF7 breast = tested on: MCF7 breast
MDA-MB-435 = tested on: MDA-MB-435
OVCAR-5 ovarian = tested on: OVCAR-5 ovarian
SNB-75 CNS = tested on: SNB-75 CNS
SW-620 colon = tested on: SW-620 colon
T-47D breast = tested on: T-47D breast
TK-10 renal = tested on: TK-10 renal

SMILES | GI50 (ACHN renal) | TGI (ACHN renal) | GI50 (HL-60(TB) leukemia) | TGI (HL-60(TB) leukemia) | GI50 (HOP-62 NSCLC) | TGI (HOP-62 NSCLC) | GI50 (MCF7 breast) | TGI (MCF7 breast) | GI50 (MDA-MB-435) | TGI (MDA-MB-435) | GI50 (OVCAR-5 ovarian) | TGI (OVCAR-5 ovarian) | GI50 (SNB-75 CNS) | TGI (SNB-75 CNS) | GI50 (SW-620 colon) | TGI (SW-620 colon) | GI50 (T-47D breast) | TGI (T-47D breast) | GI50 (TK-10 renal) | TGI (TK-10 renal)
CC/C(=C(\CC)c1ccc(OCCN(CC)CC)cc1)c1ccc(OCCN(CC)CC)cc1 | 3.99 µM | 18.7 µM | 3.8 µM | 9.84 µM | 1.73 µM | 4.76 µM | 2.81 µM | 7.99 µM | 1.86 µM | 7.28 µM | 3.96 µM | 17.7 µM | 2.83 µM | 11 µM | 2.33 µM | 7.79 µM | 2.65 µM | 6.73 µM | 3.34 µM | 12.1 µM
O=C(/C=C/c1ccccc1)CCC1C(=O)NC(=O)NC1=O | – | > 100 µM | – | > 100 µM | – | – | – | > 100 µM | – | > 100 µM | – | > 100 µM | – | > 100 µM | – | > 100 µM | – | > 100 µM | – | > 100 µM
CCOC(=O)c1c(Cl)c2c(n1Cc1cc(OC)cc(OC)c1)-c1oncc1CCC2 | 1.54 µM | > 100 µM | 0.293 µM | 1.03 µM | 0.466 µM | > 33.3 µM | 0.168 µM | > 100 µM | – | – | 0.812 µM | > 100 µM | 0.229 µM | 4.41 µM | 0.344 µM | > 100 µM | 0.445 µM | > 100 µM | 10.3 µM | > 100 µM
CC1(C)C2CCC13C(=O)C1OC3(C2)C2C(=O)c3c(O)ccc(O)c3C(=O)C12 (stereo not drawn) | 41 µM | > 100 µM | 10.6 µM | > 50.2 µM | 54.5 µM | > 100 µM | 35 µM | > 100 µM | 34.9 µM | > 74.5 µM | 38.3 µM | > 100 µM | > 44.4 µM | > 69.3 µM | – | – | 36.7 µM | > 64.8 µM | 26.1 µM | 69 µM
CCN(CC)CCOc1cc2c(C(=O)OC)c(C)oc2cc1C(C)=O | 5.65 µM | 18.3 µM | – | – | – | – | 22.8 µM | 45.2 µM | 16.1 µM | 33.9 µM | 15.4 µM | 29.1 µM | – | – | 7.56 µM | 23.9 µM | 2.25 µM | 7.75 µM | 16.8 µM | 31.4 µM
NC(=S)N/N=C(/C(=O)Nc1nc2ccc([N+](=O)[O-])cc2s1)C1C(=O)NC(=S)NC1=O | – | > 100 µM | – | > 100 µM | – | – | – | > 100 µM | – | > 100 µM | – | > 100 µM | – | – | – | > 100 µM | – | > 100 µM | – | –
Cc1c(CCl)c(=O)oc2c(C)c3occ(CCl)c(=O)c3cc12 | – | > 100 µM | – | 20.2 µM | – | > 100 µM | – | – | – | – | – | > 100 µM | – | 44.8 µM | – | > 100 µM | – | – | – | > 100 µM
CCC(=C(c1ccc(OCc2ccccc2)cc1)c1ccc(OCc2ccccc2)cc1)c1ccc(OC)cc1 | – | > 100 µM | – | > 100 µM | – | > 100 µM | – | – | – | – | – | > 100 µM | – | > 100 µM | – | > 100 µM | – | – | – | > 100 µM
CNC1C(O)CC(OC2C/C=C(\C)C/C(C)=C/C=C/CCC(C)CNC(=O)/C=C/C=C/C2C)OC1C (stereo not drawn) | – | 2.85 µM | – | 0.37 µM | – | – | – | – | – | 0.82 µM | – | 2.53 µM | – | 2.91 µM | – | 0.261 µM | – | 3.18 µM | – | 3.17 µM
CCOC(=O)c1cc2ncccc2c2ccccc12 | – | > 100 µM | – | > 100 µM | – | > 100 µM | – | > 100 µM | – | > 100 µM | – | > 100 µM | – | > 100 µM | – | – | – | > 100 µM | – | > 100 µM
Nc1nc(N)c(-c2ccc(Cl)cc2)c(CCC(=O)Nc2cccc(C(F)(F)F)c2)n1 | – | > 100 µM | – | > 100 µM | – | > 100 µM | – | – | – | – | – | > 100 µM | – | > 100 µM | – | > 100 µM | – | – | – | > 100 µM
C/C(=C\c1ccn(-c2ccc(N)cc2)n1)[C@@H]1C[C@@H]2O[C@]2(C)CCC[C@H](C)[C@H](O)[C@@H](C)C(=O)C(C)(C)[C@@H](O)CC(=O)O1 | 0.161 µM | > 50 µM | 0.0437 µM | > 50 µM | 0.0682 µM | > 50 µM | 0.0152 µM | > 50 µM | – | – | 0.107 µM | > 50 µM | 0.00754 µM | 0.233 µM | 0.0248 µM | > 50 µM | 0.028 µM | > 50 µM | 0.124 µM | > 50 µM
CSC(=S)NNC(=O)c1ccncc1 | – | 36.2 µM | – | 39.9 µM | – | 70.2 µM | – | – | – | – | – | 48.7 µM | – | 65.7 µM | – | 23.6 µM | – | – | – | 75.6 µM
COc1cnc2c(c1)C(=O)c1c-2n(CCCN2CCN(C)CC2)c(=O)c2cc(Cl)ccc12 | 0.783 µM | 14.3 µM | 18 µM | 42.4 µM | 0.95 µM | 36 µM | 0.487 µM | 21.7 µM | 1.53 µM | 3.14 µM | 3.56 µM | 13.3 µM | 0.932 µM | 17.6 µM | 0.299 µM | 12.8 µM | 22.8 µM | 98.7 µM | – | –
COc1cc2c(cc1OC)[C@@]1(C)C(=O)c3cc4c(cc3[C@H]1N(C)C2=O)OCO4 | 52.2 µM | > 100 µM | – | – | > 100 µM | > 100 µM | 65.3 µM | > 100 µM | > 100 µM | > 100 µM | > 100 µM | > 100 µM | – | – | 65.4 µM | > 100 µM | 37.9 µM | > 100 µM | 67.3 µM | > 100 µM
Nc1ccn([C@@H]2C=C(CO)[C@@H](O)[C@H]2O)c(=O)n1 | 0.05 µM | 500 µM | – | – | 0.0593 µM and 0.0749 µM | – | – | – | 0.0377 µM | 500 µM | 0.13 µM | – | – | 128 µM and > 625 µM | – | 303 µM and > 625 µM | 0.581 µM | 261 µM | 0.184 µM | 431 µM
ON(CCc1ccccn1)Cc1ccccc1 | – | > 100 µM | – | – | – | > 100 µM | – | > 100 µM | – | > 100 µM | – | > 100 µM | – | > 100 µM | – | > 100 µM | – | > 100 µM | – | > 100 µM
Cc1cc(C)n(-c2c(O)ccc(O)c2-n2nc(C)cc2C)n1 | – | > 100 µM | – | > 100 µM | – | > 100 µM | – | – | – | – | – | > 100 µM | – | > 100 µM | – | > 100 µM | – | – | – | > 100 µM
CN=S(=O)(C[C@]1(O)CC2OC1C1OC(C)(C)OC21)c1ccccc1 (stereo partly drawn) | – | > 100 µM | – | > 100 µM | – | > 100 µM | – | – | – | – | – | > 100 µM | – | > 100 µM | – | > 100 µM | – | – | – | > 100 µM
